# According to ChEMBL document CHEMBL3044788, “α-(Substituted-phenoxyacetoxy)-α-heterocyclylmethylphosphonates: synthesis, herbicidal activity, inhibition on pyruvate dehydrogenase complex (PDHc), and application as postemergent herbicide against broadleaf weeds” (J Agric Food Chem, 2013):
# What was measured:
# [1] = test system: Amaranthus blitum; experiment: Herbicidal activity against Amaranthus blitum assessed as relative growth inhibition at 100 g/ha in greenhouse by post-emergence herbicidal activity assay; type: functional; conditions: read-out: GI
# [2] = Toxicity in orally dosed Rattus norvegicus (rat); type: organism-based; conditions: in vivo, po
# [3] = test system: Chenopodium album; experiment: Herbicidal activity against Chenopodium album assessed as relative growth inhibition at 200 g/ha in greenhouse by post-emergence herbicidal activity assay; type: functional; conditions: read-out: GI
# [4] = test system: Amaranthus blitum; experiment: Herbicidal activity against Amaranthus blitum assessed as relative growth inhibition at 300 g/ha in greenhouse by post-emergence herbicidal activity assay; type: functional; conditions: read-out: GI
# [5] = test system: Amaranthus spinosus; experiment: Herbicidal activity against Amaranthus spinosus assessed as relative growth inhibition at 200 g/ha in greenhouse by postemergence herbicidal activity assay; type: functional; conditions: post-emergence, read-out: GI
# [6] = test system: Pisum sativum; experiment: Herbicidal activity against 2 to 3 leaf stage Pisum sativum assessed as inhibition of plant growth at 450 g/ha in greenhouse by postemergence herbicidal activity assay; type: functional; conditions: Lathyrus oleraceus, post-emergence; read-out: GI
# [7] = test system: Chenopodium album; experiment: Herbicidal activity against Chenopodium album assessed as relative growth inhibition at 450 g/ha in greenhouse by post-emergence herbicidal activity assay; type: functional; conditions: read-out: GI
# [8] = test system: Beta vulgaris; experiment: Herbicidal activity against Beta vulgaris assessed as relative growth inhibition at 900 g/ha in greenhouse by post-emergence herbicidal activity assay; type: functional; conditions: read-out: GI
# [9] = test system: Amaranthus blitum; experiment: Herbicidal activity against Amaranthus blitum assessed as relative growth inhibition at 900 g/ha in greenhouse by post-emergence herbicidal activity assay; type: functional; conditions: read-out: GI
# [10] = test system: Amaranthus blitum; experiment: Herbicidal activity against Amaranthus blitum assessed as relative growth inhibition at 200 g/ha in greenhouse by post-emergence herbicidal activity assay; type: functional; conditions: read-out: GI
# [11] = test system: Zea mays; experiment: Herbicidal activity against Zea mays (maize) assessed as relative growth inhibition at 450 g/ha in greenhouse by postemergence herbicidal activity assay; type: organism-based; conditions: in vivo, other
# [12] = test system: Beta vulgaris; experiment: Herbicidal activity against Beta vulgaris assessed as relative growth inhibition at 1200 g/ha in greenhouse by post-emergence herbicidal activity assay; type: functional; conditions: read-out: GI
# [13] = test system: Beta vulgaris; experiment: Herbicidal activity against Beta vulgaris assessed as relative growth inhibition at 100 g/ha in greenhouse by post-emergence herbicidal activity assay; type: functional; conditions: read-out: GI
# [14] = test system: Amaranthus blitum; experiment: Herbicidal activity against Amaranthus blitum assessed as relative growth inhibition at 1200 g/ha in greenhouse by post-emergence herbicidal activity assay; type: functional; conditions: read-out: GI
# [15] = Toxicity in percutaneously dosed Rattus norvegicus (rat); type: organism-based; conditions: in vivo, topical or ocular
# [16] = test system: Amaranthus spinosus; experiment: Herbicidal activity against Amaranthus spinosus assessed as relative growth inhibition at 300 g/ha in greenhouse by postemergence herbicidal activity assay; type: functional; conditions: post-emergence, read-out: GI
# [17] = test system: Beta vulgaris; experiment: Herbicidal activity against Beta vulgaris assessed as relative growth inhibition at 450 g/ha in greenhouse by post-emergence herbicidal activity assay; type: functional; conditions: read-out: GI
# [18] = test system: Amaranthus blitum; experiment: Herbicidal activity against Amaranthus blitum assessed as relative growth inhibition at 450 g/ha in greenhouse by post-emergence herbicidal activity assay; type: functional; conditions: read-out: GI
# [19] = test system: Chenopodium album; experiment: Herbicidal activity against Chenopodium album assessed as relative growth inhibition at 600 g/ha in greenhouse by post-emergence herbicidal activity assay; type: functional; conditions: read-out: GI
# [20] = test system: Brassica juncea; experiment: Herbicidal activity against two to three-leaf stage Brassica juncea assessed as inhibition of plant growth at 450 g/ha in greenhouse by post-emergence herbicidal activity assay; type: functional; conditions: read-out: GI
# [21] = test system: Oryza sativa; experiment: Herbicidal activity against two to three-leaf stage Oryza sativa (rice) assessed as inhibition of plant growth at 450 g/ha in greenhouse by postemergence herbicidal activity assay; type: organism-based; conditions: in vivo, other
# [22] = test system: Amaranthus spinosus; experiment: Herbicidal activity against Amaranthus spinosus assessed as relative growth inhibition at 600 g/ha in greenhouse by postemergence herbicidal activity assay; type: functional; conditions: post-emergence, read-out: GI
# [23] = test system: Beta vulgaris; experiment: Herbicidal activity against Beta vulgaris assessed as relative growth inhibition at 50 g/ha in greenhouse by post-emergence herbicidal activity assay; type: functional; conditions: read-out: GI
# [24] = test system: Zea mays; experiment: Herbicidal activity against Zea mays (maize) assessed as relative growth inhibition at 600 g/ha in greenhouse by postemergence herbicidal activity assay; type: organism-based; conditions: in vivo, other
# [25] = test system: Brassica rapa subsp. oleifera; experiment: Herbicidal activity against Brassica rapa subsp. oleifera assessed as inhibition of rape root growth at 450 g/ha by postemergence herbicidal activity assay; type: functional; conditions: post-emergence, read-out: GI
# [26] = test system: Oryza sativa; experiment: Herbicidal activity against Oryza sativa (rice) assessed as relative growth inhibition at 900 g/ha in greenhouse by postemergence herbicidal activity assay; type: organism-based; conditions: in vivo, other
# [27] = test system: Zea mays; experiment: Herbicidal activity against Zea mays (maize) assessed as relative growth inhibition at 300 g/ha in greenhouse by postemergence herbicidal activity assay; type: organism-based; conditions: in vivo, other
# [28] = test system: Zea mays; experiment: Herbicidal activity against Zea mays (maize) assessed as relative growth inhibition at 900 g/ha in greenhouse by postemergence herbicidal activity assay; type: organism-based; conditions: in vivo, other
# [29] = test system: Oryza sativa; experiment: Herbicidal activity against Oryza sativa (rice) assessed as relative growth inhibition at 1200 g/ha in greenhouse by postemergence herbicidal activity assay; type: organism-based; conditions: in vivo, other
# [30] = test system: Oryza sativa; experiment: Herbicidal activity against Oryza sativa (rice) assessed as relative growth inhibition at 300 g/ha in greenhouse by postemergence herbicidal activity assay; type: organism-based; conditions: in vivo, other
# [31] = test system: Eclipta prostrata; experiment: Herbicidal activity against two to three-leaf stage Eclipta prostrata assessed as inhibition of plant growth at 150 g/ha in greenhouse by post-emergence herbicidal activity assay; type: functional; conditions: read-out: GI
# [32] = test system: Brassica rapa subsp. oleifera; experiment: Herbicidal activity against Brassica rapa subsp. oleifera assessed as inhibition of rape root growth; type: functional, organism-based
# [33] = test system: Zea mays; experiment: Herbicidal activity against Zea mays (maize) assessed as relative growth inhibition at 1200 g/ha in greenhouse by postemergence herbicidal activity assay; type: organism-based; conditions: in vivo, other
# [34] = test system: Brassica rapa subsp. oleifera; experiment: Herbicidal activity against Brassica rapa subsp. oleifera assessed as inhibition of rape root growth at 450 g/ha by pre-emergence herbicidal activity assay; type: functional; conditions: read-out: GI
# [35] = test system: Polygonum aviculare; experiment: Herbicidal activity against Polygonum aviculare assessed as relative growth inhibition at 300 g/ha in greenhouse by post-emergence herbicidal activity assay; type: functional; conditions: read-out: GI
# [36] = test system: Amaranthus blitum; experiment: Herbicidal activity against Amaranthus blitum assessed as relative growth inhibition at 50 g/ha in greenhouse by post-emergence herbicidal activity assay; type: functional; conditions: read-out: GI
# [37] = test system: Beta vulgaris; experiment: Herbicidal activity against Beta vulgaris assessed as relative growth inhibition at 200 g/ha in greenhouse by post-emergence herbicidal activity assay; type: functional; conditions: read-out: GI
# [38] = test system: Polygonum aviculare; experiment: Herbicidal activity against Polygonum aviculare assessed as relative growth inhibition at 450 g/ha in greenhouse by post-emergence herbicidal activity assay; type: functional; conditions: read-out: GI
# [39] = test system: Amaranthus spinosus; experiment: Herbicidal activity against Amaranthus spinosus assessed as relative growth inhibition at 100 g/ha in greenhouse by postemergence herbicidal activity assay; type: functional; conditions: post-emergence, read-out: GI
# [40] = test system: Brassica rapa subsp. oleifera; experiment: Herbicidal activity against two to three-leaf stage Brassica rapa subsp. oleifera assessed as inhibition of plant growth at 150 g/ha in greenhouse by postemergence herbicidal activity assay; type: functional; conditions: post-emergence, read-out: GI
# [41] = test system: Amaranthus retroflexus; experiment: Herbicidal activity against 2 to 3 leaf stage Amaranthus retroflexus assessed as inhibition of plant growth at 450 g/ha in greenhouse by postemergence herbicidal activity assay; type: functional; conditions: post-emergence, read-out: GI
# [42] = test system: Beta vulgaris; experiment: Herbicidal activity against Beta vulgaris assessed as relative growth inhibition at 600 g/ha in greenhouse by post-emergence herbicidal activity assay; type: functional; conditions: read-out: GI
# [43] = test system: Amaranthus spinosus; experiment: Herbicidal activity against Amaranthus spinosus assessed as relative growth inhibition at 1200 g/ha in greenhouse by postemergence herbicidal activity assay; type: functional; conditions: post-emergence, read-out: GI
# [44] = test system: Abutilon theophrasti; experiment: Herbicidal activity against two to three-leaf stage Abutilon theophrasti (velvetleaf) assessed as inhibition of plant growth at 150 g/ha in greenhouse by post-emergence herbicidal activity assay; type: functional; conditions: read-out: GI
smiles,measurement,setting,value
COP(=O)(OC)C(OC(=O)COc1ccc(Cl)cc1Cl)c1ccco1 (centres undefined),inhibition of growth at 100 g/ha,[1],100%
same,LD50,[2],2700 mg/kg
same,inhibition of growth at 200 g/ha,[3],100%
same,inhibition of growth at 300 g/ha,[4],100%
same,inhibition of growth at 200 g/ha,[5],98%
same,inhibition of growth at 450 g/ha,[6],90%
same,inhibition of growth at 450 g/ha,[7],100%
same,inhibition of growth at 900 g/ha,[8],100%
same,inhibition of growth at 900 g/ha,[9],100%
same,inhibition of growth at 200 g/ha,[10],100%
same,growth inhibition (GI),[11],0%
same,inhibition of growth at 1200 g/ha,[12],100%
same,inhibition of growth at 100 g/ha,[13],80%
same,inhibition of growth at 1200 g/ha,[14],100%
same,LD50,[15],> 2000 mg/kg
same,inhibition of growth at 300 g/ha,[16],98%
same,inhibition of growth at 450 g/ha,[17],100%
same,inhibition of growth at 450 g/ha,[18],100%
same,inhibition of growth at 600 g/ha,[19],100%
same,inhibition of growth at 450 g/ha,[20],96.5%
same,growth inhibition (GI),[21],10%
same,inhibition of growth at 600 g/ha,[22],100%
same,inhibition of growth at 50 g/ha,[23],80%
same,growth inhibition (GI),[24],0%
same,inhibition of growth at 450 g/ha,[25],92%
same,growth inhibition (GI),[26],0%
same,growth inhibition (GI),[27],0%
same,growth inhibition (GI),[28],0%
same,growth inhibition (GI),[29],20%
same,growth inhibition (GI),[30],0%
same,inhibition of growth at 150 g/ha,[31],90%
same,IC50,[32],41.8 nM
same,growth inhibition (GI),[33],10%
same,inhibition of growth at 450 g/ha,[34],94%
same,inhibition of growth at 300 g/ha,[35],91%
same,inhibition of growth at 50 g/ha,[36],100%
same,inhibition of growth at 200 g/ha,[37],98%
same,inhibition of growth at 450 g/ha,[38],100%
same,inhibition of growth at 100 g/ha,[39],90%
same,inhibition of growth at 150 g/ha,[40],95%
same,inhibition of growth at 450 g/ha,[41],100%
same,inhibition of growth at 600 g/ha,[42],100%
same,inhibition of growth at 1200 g/ha,[43],100%
same,inhibition of growth at 150 g/ha,[44],95%
